From US7745465B2, “Method of enhancing cellular production of molecular chaperone, hydroxylamine derivatives useful for enhancing the chaperone production and the preparation thereof” (CytRx Corporation, priority 1995, dated 2010)

Legend:
[1] = tested on: Grp94; assay: Western blot of Grp94 in heat shocked H9c2 cells; assay type: cell-based, rat
Method: Experiments set forth in this section were conducted to determine whether N-[2-hydroxy-3-(1-piperidinyl)propoxy]-3-pyridinecarboximidoyl chloride maleate acts to increase the expression of molecular chaperon by a cell. The accumulation of different heat shock proteins subsequent to a period of exposure to heat shock alone, and to heat shock in combination with N-[2-hydroxy-3-(1-piperidinyl)propoxy]-3-pyridinecarboximidoyl chloride maleate administration, was examined by adding 10^−5 M of N-[2-hydroxy-3-(1-piperidinyl)propoxy]-3-pyridinecarboximidoyl chloride maleate before, during, or immediately after hyperthermic treatment of heart myogenic cells (H9c2 cells).
The embryonic rat heart-derived cell line H9c2 was obtained from European Collection of Animal cell Cultures (ECACC) (88092904). The cells were maintained at 37° C. in Dulbecco's modified Eagle's medium (DMEM) supplemented with 10% fetal calf serum (GIBCO) in JOUAN C02 thermostat (5% CO2).
Heat shock was performed at 43° C. in CO2 thermostat for the given time intervals (20, 40, 60, 90 and 120 min.). Cells were then taken back to 37° C. for 6 hours and proteins were extracted for SDS-PAGE. […]
Protein concentration was determined from 5:1 samples by the Bradford assay (M. M. Braford, Anal. Biochem., 72: 248-254 (1976)) in three parallel. […]

[2] = tested on: plasma membrane fluidity; assay: Steady-state fluorescence anisotropy of DPH-PA in serum deprived cells; assay type: cell-based; conditions: both cell models
Method: Experiments were carried out using WEH1 mouse fibrosarcoma and H9c2 rat heart muscle cell lines divided into three groups: • control (10% FCS fetal calf serum) • serum deprived • N-[2-hydroxy-3-(1-piperidinyl)propoxy]-3-pyridinecarboximidoyl chloride maleate (10^−5 M) treated and serum deprived 1.2(i) Serum Deprivation and MTT Test
Cell suspensions of […] in PBS were labeled by the addition of DPH-PA (3-[p-(6-Phenyl)-1,3,5-hexatrienyl]phenylpropionic acid) dissolved in tetrahydrofuran at a final concentration of 0.1 :M and incubated for 10 min. at 37 C. The amount of organic solvent added was 0.05% to avoid its effect on cell membranes. […] Fluorescence measurements were carried out at 37° C. using a Quanta Master QM-1 T-format luminescence spectrometer (Photon Technology Int. Inc., N.J. USA) equipped with polarizers in the excitation and in the two emission light path. […] The measured fluorescence intensities were corrected for background fluorescence and light scattering from the unlabeled sample. The fluorescence anisotropy was calculated as rs=(IVV−G·IVH)/(IVV+(2×G×IVH))
where IVV and IVH are observed intensities measured with polarizers parallel and perpendicular to the vertically polarized exciting beam, respectively. […]

[3] = tested on: AP-1; assay: AP-1 transcription factor activity in yeast cells; assay type: cell-based
Text: It was also investigated if the activity of AP-1 and P 1 transcription factors can be modulated by N-[2-hydroxy-3-(1-piperidinyl)propoxy]-3-piridinecarboximidoyl chloride maleate in yeast cells exposed to various stress conditions.

SMILES: O=C(O)/C=C\C(=O)O.OC(CON=C(Cl)c1cccnc1)CN1CCCCC1 (centres unmarked) [N-[2-hydroxy-3-(1-piperidinyl)-propoxy]3-pyridinecarboximidoyl chloride maleate]
- effect on Grp94 level ([1]; addition during recovery from heat stress lasting for 40 to 60 min.): almost effective as the administration
- increase of Grp94 compared to 43° C. treatment ([1]; preaddition of the drug combined with a 20 min. long heat shock): 4 times
- membrane physical state (fluorescence anisotropy of DPH-PA) [2]: almost complete preservation of the membrane physical state
- activity of AP-1 ([3]; rich medium): decrease the activity of the factor
- activity of AP-1 ([3]; supply of nutrients inadequate): increases the activity of AP-1
